Test results from US10227329B2, “Compounds useful for treating disorders related to RET” (BLUEPRINT MEDICINES CORPORATION, priority 2016, dated 2019).

How the values were obtained:
wild type RET = wild type RET (Homo sapiens (Human), UniProt P07949); assay: RET Wild Type Assay at KM (Caliper electrophoretic mobility shift); type: biochemical; conditions: 25 μM ATP (KM)
RET V804L = RET V804L (Homo sapiens (Human), UniProt P07949, V804L); assay: RET V804L Gatekeeper Mutant Assay at KM (Caliper electrophoretic mobility shift); type: biochemical; conditions: 10 μM ATP (KM), read-out: V480L Mutant
Sequence of RET V804L (P07949 29-1114 V804L): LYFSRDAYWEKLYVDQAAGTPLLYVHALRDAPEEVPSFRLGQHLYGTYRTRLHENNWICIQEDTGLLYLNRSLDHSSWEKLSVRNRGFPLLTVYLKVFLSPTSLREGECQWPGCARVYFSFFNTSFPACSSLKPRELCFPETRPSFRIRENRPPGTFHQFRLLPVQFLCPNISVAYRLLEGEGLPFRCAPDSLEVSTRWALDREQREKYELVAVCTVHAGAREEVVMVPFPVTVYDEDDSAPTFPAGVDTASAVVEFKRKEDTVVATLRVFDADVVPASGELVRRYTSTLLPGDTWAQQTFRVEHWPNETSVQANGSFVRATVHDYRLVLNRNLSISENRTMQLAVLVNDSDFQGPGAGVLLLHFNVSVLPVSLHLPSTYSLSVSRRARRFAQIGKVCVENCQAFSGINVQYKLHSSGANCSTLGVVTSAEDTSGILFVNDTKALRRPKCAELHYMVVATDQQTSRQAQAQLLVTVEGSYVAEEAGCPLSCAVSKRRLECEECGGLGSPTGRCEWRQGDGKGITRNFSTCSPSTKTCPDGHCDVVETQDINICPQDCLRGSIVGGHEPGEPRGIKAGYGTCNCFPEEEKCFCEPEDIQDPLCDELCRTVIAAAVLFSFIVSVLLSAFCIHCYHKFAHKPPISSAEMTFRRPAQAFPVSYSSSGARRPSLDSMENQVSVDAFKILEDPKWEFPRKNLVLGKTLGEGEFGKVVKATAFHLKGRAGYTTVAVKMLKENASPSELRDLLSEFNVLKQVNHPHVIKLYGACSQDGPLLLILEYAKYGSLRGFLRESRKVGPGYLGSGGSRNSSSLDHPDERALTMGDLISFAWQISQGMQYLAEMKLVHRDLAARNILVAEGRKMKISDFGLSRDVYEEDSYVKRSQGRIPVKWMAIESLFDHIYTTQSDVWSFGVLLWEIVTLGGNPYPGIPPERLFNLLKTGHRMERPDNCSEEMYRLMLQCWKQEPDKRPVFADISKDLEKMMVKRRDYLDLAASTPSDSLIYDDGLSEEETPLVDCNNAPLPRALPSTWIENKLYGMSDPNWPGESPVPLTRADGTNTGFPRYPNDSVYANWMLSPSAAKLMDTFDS

Sequence of wild type RET (P07949 29-1114): as the sequence (P07949 29-1114 V804L) above, with L776V counted along it

Structure (SMILES)	IC50 (wild type RET) [nM]	IC50 (RET V804L) [nM]
Cc1cc(Nc2cc(C)[nH]n2)nc(N2CCC(C(=O)NCc3ccccc3)CC2)n1 [Compound 100]	> 100	10 to 100
Cc1cc(Nc2cc(C)[nH]n2)nc(N2CCC(C)(C(=O)NCc3ccccc3)CC2)n1 [Compound 101]	10 to 100	10 to 100
Cc1cc(Nc2cc(C)[nH]n2)nc(N2CCC(O)(C(=O)NCc3ccccc3)CC2)c1 [Compound 102]	> 100	10 to 100
Cc1cc(Nc2cc(C)[nH]n2)nc(N2CCC(O)(C(=O)NCc3ccccc3)CC2)n1 [Compound 103]	> 100	> 100
COC1(C(=O)NCc2ccccc2)CCN(c2nc(C)cc(Nc3cc(C)[nH]n3)n2)CC1 [Compound 104]	> 100	10 to 100
COc1ccc(CNC(=O)C2(O)CCN(c3cc(C)cc(Nc4cc(C)[nH]n4)n3)CC2)cc1 [Compound 105]	10 to 100	10 to 100
COc1ccc(CNC(=O)C2(O)CCN(c3nc(C)cc(Nc4cc(C)[nH]n4)n3)CC2)cc1 [Compound 106]	> 100	10 to 100
Cc1cc(Nc2cc(C)[nH]n2)nc(N2CC(C)(C(=O)NCc3ccc(-n4cccn4)nc3)C2)c1 [Compound 107, N-((6-(1H-pyrazol-1-yl)pyridin-3-yl)methyl)-3-methyl-1-(4-methyl-6-((5-methyl-1H-pyrazol-3-yl)amino)pyridin-2-yl)azetidine-3-carboxamide]	< 10	< 10
Cc1cc(Nc2cc(C)[nH]n2)nc(N2CC(O)(C(=O)NCc3ccc(-n4cccn4)nc3)C2)c1 [Compound 110]	10 to 100	< 10
Cc1cc(Nc2cc(C)[nH]n2)nc(N2CC(F)(C(=O)NCc3ccc(-n4cccn4)nc3)C2)c1 [Compound 111]	< 10	< 10
Cc1cc(Nc2cc(C)[nH]n2)nc(N2CC(F)(C(=O)NCc3ccc(-n4cccn4)nc3)C2)n1 [Compound 112]	< 10	< 10
CCOc1ccc(CNC(=O)C2(O)CCN(c3cc(C)cc(Nc4cc(C)[nH]n4)n3)CC2)cc1 [Compound 113]	10 to 100	< 10
COc1ccc([C@H](C)NC(=O)C2(O)CCN(c3cc(C)cc(Nc4cc(C)[nH]n4)n3)CC2)cc1 [Compound 114]	10 to 100	10 to 100
CCOc1ccc(CNC(=O)C2(O)CCN(c3nc(C)cc(Nc4cc(C)[nH]n4)n3)CC2)cc1 [Compound 115]	10 to 100	10 to 100
COc1ccc([C@H](C)NC(=O)C2(O)CCN(c3nc(C)cc(Nc4cc(C)[nH]n4)n3)CC2)cc1 [Compound 116]	> 100	10 to 100
Cc1cc(Nc2cc(C)[nH]n2)nc(N2CC(C)(C(=O)N[C@@H](C)c3ccc(-n4cccn4)nc3)C2)c1 [Compound 117]	< 10	< 10
Cc1cc(Nc2cc(C)[nH]n2)nc(N2CCC(C(=O)NCc3ccc(-n4cccn4)nc3)CC2)n1 [Compound 118]	< 10	< 10
Cc1cc(Nc2cc(C)[nH]n2)nc(N2CC(C(=O)N[C@@H](C)c3ccc(-n4cc(F)cn4)nc3)C2)c1 [Compound 119]	< 10	< 10
Cc1cc(Nc2cc(C)[nH]n2)nc(N2CC(C)(C(=O)NCc3ccc(-n4cc(F)cn4)nc3)C2)c1 [Compound 120]	< 10	< 10
Cc1cc(Nc2cc(C)[nH]n2)nc(N2CC(C(=O)N[C@@H](C)c3ccc(-n4cc(F)cn4)nc3)C2)n1 [Compound 121]	< 10	< 10
Cc1cc(Nc2cc(C)[nH]n2)nc(N2CC(F)(C(=O)N[C@@H](C)c3ccc(-n4cccn4)nc3)C2)n1 [Compound 122]	< 10	< 10

Structure (SMILES)	IC50 (wild type RET) [nM]	IC50 (RET V804L) [nM]
COc1ccc([C@H](C)NC(=O)C2(OC)CCN(c3nc(C)cc(Nc4cc(C)[nH]n4)n3)CC2)cc1 [Compound 123]	10 to 100	10 to 100
Cc1cc(Nc2cc(C)[nH]n2)nc(N2CC(F)(C(=O)NCc3ccc(-n4cc(F)cn4)nc3)C2)n1 [Compound 124]	< 10	< 10
COC1(C(=O)NCc2ccc(N3CC(F)C3)nc2)CN(c2nc(C)cc(Nc3cc(C)[nH]n3)n2)C1 [Compound 125]	> 100	> 100
Cc1cc(Nc2cc(C)[nH]n2)nc(N2CC(C#N)(C(=O)N[C@@H](C)c3ccc(-n4cccn4)nc3)C2)n1 [Compound 126]	< 10	< 10
Cc1cc(Nc2cc(C)[nH]n2)nc(N2CCC(C)(C(=O)NCc3ccc(-n4cccn4)nc3)CC2)c1 [Compound 127]	< 10	< 10
Cc1cc(Nc2cc(C)c(C#N)c(N3CC(F)(C(=O)NCc4ccc(-n5cccn5)nc4)C3)n2)n[nH]1 [Compound 128]	< 10	< 10
Cc1cc(Nc2cc(C)[nH]n2)nc(N2CCC(C)(C(=O)NCc3ccc(-n4cccn4)nc3)CC2)n1 [Compound 129]	< 10	< 10
CCC1(C(=O)N[C@@H](C)c2ccc(-n3cccn3)nc2)CN(c2nc(C)cc(Nc3cc(C)[nH]n3)n2)C1 [Compound 130]	< 10	< 10
Cc1cc(Nc2cc(C)[nH]n2)nc(N2CCC(O)(C(=O)NCc3ccc(-n4cccn4)nc3)CC2)c1 [Compound 131]	< 10	< 10
Cc1cc(Nc2cc(C)[nH]n2)nc(N2CC[C@H](C(=O)NCc3ccc(-n4cccn4)nc3)[C@@H](O)C2)c1 [Compound 132]	< 10	< 10
Cc1cc(Nc2cc(C)[nH]n2)nc(N2CC[C@@H](C(=O)NCc3ccc(-n4cccn4)nc3)[C@H](O)C2)c1 [Compound 133]	< 10	< 10
Cc1cc(Nc2cc(C)[nH]n2)nc(N2CC[C@@H](C(=O)NCc3ccc(-n4cccn4)nc3)[C@@H](O)C2)c1 [Compound 134]	< 10	< 10
Cc1cc(Nc2cc(C)[nH]n2)nc(N2CC[C@H](C(=O)NCc3ccc(-n4cccn4)nc3)[C@H](O)C2)c1 [Compound 135]	10 to 100	10 to 100
Cc1cc(Nc2cc(C)[nH]n2)nc(N2CCC(O)(C(=O)NCc3ccc(-n4cccn4)nc3)CC2)n1 [Compound 136, N-((6-(1H-pyrazol-1-yl)pyridin-3-yl)methyl)-4-hydroxy-1-(4-methyl-6-(3-methyl-1H-pyrazol-5-ylamino)pyrimidin-2-yl)piperidine-4-carboxamide]	< 10	< 10
COC1(C(=O)NCc2ccc(-n3ccc(C)n3)nc2)CN(c2nc(C)cc(Nc3cc(C)[nH]n3)n2)C1 [Compound 137]	< 10	< 10
COC1(C(=O)NCc2ccc(-n3cc(C)cn3)nc2)CN(c2nc(C)cc(Nc3cc(C)[nH]n3)n2)C1 [Compound 138]	10 to 100	< 10
Cc1cc(Nc2cc(C)[nH]n2)nc(N2CC(C)(C(=O)N[C@@H](C)c3ccc(-n4cc(F)cn4)nc3)C2)c1 [Compound 139]	< 10	< 10
Cc1cc(Nc2cc(C)[nH]n2)nc(N2CC(C(=O)N(C)[C@@H](C)c3ccc(-n4cc(F)cn4)nc3)C2)c1 [Compound 140]	< 10	< 10
Cc1cc(Nc2cc(C)[nH]n2)nc(N2CCC(F)(C(=O)NCc3ccc(-n4cccn4)nc3)CC2)n1 [Compound 141]	< 10	< 10
Cc1cc(Nc2cc(C)[nH]n2)nc(N2CC(C(=O)N(C)[C@@H](C)c3ccc(-n4cc(F)cn4)nc3)C2)n1 [Compound 142]	< 10	< 10
